Measured values reported in BindingDB's records for PubMed 37235998 (Nanjing University of Chinese Medicine).

Assays:
[1] = target: T1, Isocitrate dehydrogenase [NADP], mitochondrial (Homo sapiens, UniProt P48735); experiment: Inhibition of N-terminal His-tagged human recombinant IDH2 R140Q mutant (41 to 452) expressed in baculovirus system incubated for 60 mins by size-exclusion chromatography analysis
T1 sequence (P48735 whole entry): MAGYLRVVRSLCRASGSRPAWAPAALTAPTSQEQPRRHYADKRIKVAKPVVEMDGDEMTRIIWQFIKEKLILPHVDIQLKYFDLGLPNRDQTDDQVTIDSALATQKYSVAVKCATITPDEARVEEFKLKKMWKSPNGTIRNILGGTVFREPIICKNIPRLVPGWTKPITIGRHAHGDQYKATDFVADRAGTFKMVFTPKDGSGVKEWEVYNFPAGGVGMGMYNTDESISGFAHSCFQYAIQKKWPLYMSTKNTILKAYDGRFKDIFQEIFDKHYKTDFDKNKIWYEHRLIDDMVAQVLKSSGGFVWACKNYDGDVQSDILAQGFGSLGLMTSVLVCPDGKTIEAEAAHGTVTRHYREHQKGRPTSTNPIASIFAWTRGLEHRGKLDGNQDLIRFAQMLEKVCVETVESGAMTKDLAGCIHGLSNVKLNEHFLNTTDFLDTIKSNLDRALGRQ

[2] = target: Isocitrate dehydrogenase [NADP] cytoplasmic (Homo sapiens, UniProt O75874); experiment: Inhibition of N-terminal His-tagged human recombinant IDH1 R132H mutant (1 to 414) expressed in Sf9 incubated for 60 mins by size-exclusion chromatography analysis
Isocitrate dehydrogenase [NADP] cytoplasmic, sequence (O75874 2-414 R132H limits assumed): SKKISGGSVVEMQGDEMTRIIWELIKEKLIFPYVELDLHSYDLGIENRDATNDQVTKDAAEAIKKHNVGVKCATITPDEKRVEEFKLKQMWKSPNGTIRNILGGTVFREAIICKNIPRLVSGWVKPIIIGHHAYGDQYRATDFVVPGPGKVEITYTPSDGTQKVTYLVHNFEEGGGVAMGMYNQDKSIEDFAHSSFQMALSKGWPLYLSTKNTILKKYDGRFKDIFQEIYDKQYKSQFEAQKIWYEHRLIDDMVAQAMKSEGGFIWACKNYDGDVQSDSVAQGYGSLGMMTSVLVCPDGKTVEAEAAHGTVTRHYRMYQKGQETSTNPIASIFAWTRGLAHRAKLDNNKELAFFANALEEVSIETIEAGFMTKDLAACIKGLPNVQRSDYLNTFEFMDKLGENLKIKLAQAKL

Structure (SMILES)	IC50 [1] [nM]	IC50 [2] [nM]
C[C@@H](Nc1nc(Nc2ccnc(C3(C#N)CC3)c2)nc(-c2cccc(C(F)(F)F)n2)n1)C(F)(F)F [US10028961, Compound 352]	< 50	–
FC1(F)CCC(Nc2nc(NC3Cc4ccccc4C3)nc(-c3cccc(C(F)(F)F)n3)n2)C1 (stereo not drawn) [US10028961, Compound 152]	< 50	< 50
